Source: patent publication US10111875B2, “Pyrrolopyrimidine compounds and uses thereof” (HUTCHISON MEDIPHARMA LIMITED, priority 2010, dated 2018)

What follows are compounds tested against Recombinant human JAK1 catalytic domain (Homo sapiens (Human), UniProt P23458) (assay: JAK1 kinase assay (Z'-LYTE Tyr 6 Peptide)). Conditions: JAK1 kinase assay, 0.3 uM concentration; read-out: inhibition percentage (IR %).
Assay type: biochemical
Procedure: JAK1/2/3 kinase assay are performed in vitro using Kit-Tyr 6 Peptide (Invitrogen, Cat. No. PV4122). TYK2 kinase assay are performed in vitro using Z′-LYTE™ Kinase Assay Kit-Tyr 3 Peptide (Invitrogen, Cat. No. PV3192). […] All compounds are initially tested at 8 different concentrations (1 μM down to 0.0003 μM) using a 1:3 serial dilution scheme.

Chain of Recombinant human JAK1 catalytic domain (P23458 875-1153): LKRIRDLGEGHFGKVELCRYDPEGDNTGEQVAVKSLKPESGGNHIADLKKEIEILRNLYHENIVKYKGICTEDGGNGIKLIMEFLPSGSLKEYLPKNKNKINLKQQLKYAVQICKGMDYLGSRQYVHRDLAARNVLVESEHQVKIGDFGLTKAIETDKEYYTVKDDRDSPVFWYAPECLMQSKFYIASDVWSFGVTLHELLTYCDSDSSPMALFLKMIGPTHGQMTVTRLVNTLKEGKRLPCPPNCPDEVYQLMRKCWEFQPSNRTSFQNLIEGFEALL

inhibition at 0.3 µM [%]	SMILES
50 to 100	CN(c1ccc(C(=O)NCc2ccccc2)cc1F)[C@@H]1CCN(c2ncnc3[nH]ccc23)C1 [Compound 187]
50 to 100	CN(C(=O)c1ccc(N(C)[C@@H]2CCN(c3ncnc4[nH]ccc34)C2)nc1)c1ccccc1 [Compound 197]
50 to 100	C#CCN(c1ccc(C#N)cc1)[C@@H]1CCN(c2ncnc3[nH]ccc23)C1 [Compound 131]
50 to 100	CN(c1ccc(C(=O)Nc2ccc(F)cc2)cn1)[C@@H]1CCN(c2ncnc3[nH]ccc23)C1 [Compound 191]
50 to 100	CN(c1ccc(C(F)(F)F)cn1)[C@@H]1CCN(c2ncnc3[nH]ccc23)C1 [Compound 123]
50 to 100	CN(c1ccc(NS(=O)(=O)Cc2ccccc2Cl)cn1)[C@@H]1CCN(c2ncnc3[nH]ccc23)C1 [Compound 223]
50 to 100	CN(c1ccc(Cl)cn1)[C@@H]1CCN(c2ncnc3[nH]ccc23)C1 [Compound 67]
50 to 100	CN(C(=O)N[C@@H]1c2ccccc2C[C@H]1O)[C@@H]1CCN(c2ncnc3[nH]ccc23)C1 [Compound 29, 1-((R)-1-(7H-pyrrolo[2,3-d]pyrimidin-4-yl)pyrrolidin-3-yl)-3-((1R,2R)-2-hydroxy-2,3-dihydro-1H-inden-1-yl)-1-methylurea]
50 to 100	COc1ccc(NC(=O)c2ccc(N(C)[C@@H]3CCN(c4ncnc5[nH]ccc45)C3)nc2)cc1 [Compound 183]
50 to 100	Cc1ccc(CS(=O)(=O)Nc2ccc(N(C)[C@@H]3CCN(c4ncnc5[nH]ccc45)C3)nc2)cc1 [Compound 222]
50 to 100	CN([C@@H]1CCN(c2ncnc3[nH]ccc23)C1)S(=O)(=O)N1CCCC1 [Compound 15]
50 to 100	CN(c1c(F)c(F)c(C#N)c(F)c1F)[C@@H]1CCN(c2ncnc3[nH]ccc23)C1 [Compound 117]
50 to 100	CN([C@@H]1CCN(c2ncnc3[nH]ccc23)C1)S(=O)(=O)c1cccc(C#N)c1 [Compound 10]
50 to 100	C[C@H](O)CNS(=O)(=O)c1ccc(N(C)[C@@H]2CCN(c3ncnc4[nH]ccc34)C2)nc1 [Compound 245]
20 to 50	Cc1cc(C#N)cnc1N(C)[C@@H]1CCN(c2ncnc3[nH]ccc23)C1 [Compound 100]
50 to 100	CN(c1ccc(C(=O)NC[C@H](O)c2ccccc2)cc1F)[C@@H]1CCN(c2ncnc3[nH]ccc23)C1 [Compound 202]
50 to 100	CN(c1ccc(C(=O)Nc2cccc(Cl)c2)cc1F)[C@@H]1CCN(c2ncnc3[nH]ccc23)C1 [Compound 185]
50 to 100	C[C@@H](O)CNS(=O)(=O)c1ccc(N(C)[C@@H]2CCN(c3ncnc4[nH]ccc34)C2)nc1 [Compound 244]
50 to 100	CN(C(=O)Nc1ccc(C(F)(F)F)cc1)[C@@H]1CCN(c2ncnc3[nH]ccc23)C1 [Compound 30]
50 to 100	CN(C(=O)c1ccc(N(C)[C@@H]2CCN(c3ncnc4[nH]ccc34)C2)nc1)c1ccc(F)cc1 [Compound 178]
50 to 100	CN(c1ccc(S(C)(=O)=O)cn1)[C@@H]1CCN(c2ncnc3[nH]ccc23)C1 [Compound 61]
20 to 50	C[C@H](NC(=O)c1ccc(N(C)[C@@H]2CCN(c3ncnc4[nH]ccc34)C2)nc1)c1ccccc1 [Compound 188]
50 to 100	CN(c1ccc(S(=O)(=O)C(F)(F)F)cc1)[C@@H]1CCN(c2ncnc3[nH]ccc23)C1 [Compound 122]
50 to 100	CN(c1ncc(C#N)cc1F)[C@@H]1CCN(c2ncnc3[nH]ccc23)C1 [Compound 158]
50 to 100	CN(c1ccc(C(=O)N[C@H](CO)c2ccccc2)cn1)[C@@H]1CCN(c2ncnc3[nH]ccc23)C1 [Compound 174]
50 to 100	CN(c1cccc(C#N)n1)[C@@H]1CCN(c2ncnc3[nH]ccc23)C1 [Compound 91]
50 to 100	COC[C@H](NC(=O)c1ccc(N(C)[C@@H]2CCN(c3ncnc4[nH]ccc34)C2)nc1)c1ccccc1 [Compound 209]
50 to 100	CN(C(=O)CS(C)(=O)=O)[C@@H]1CCN(c2ncnc3[nH]ccc23)C1 [Compound 27]

inhibition at 0.3 µM [%]	SMILES
50 to 100	CN(C(=O)CO)[C@@H]1CCN(c2ncnc3[nH]ccc23)C1 [Compound 24]
50 to 100	CN(c1ccc2nc[nH]c2n1)[C@@H]1CCN(c2ncnc3[nH]ccc23)C1 [Compound 163, (R)—N-(1-(7H-pyrrolo[2,3-d]pyrimidin-4-yl)pyrrolidin-3-yl)-N-methyl-3H-imidazo[4,5-b]pyridin-5-amine]
20 to 50	COc1ccc(S(=O)(=O)N(C)[C@@H]2CCN(c3ncnc4[nH]ccc34)C2)cc1 [Compound 13]
50 to 100	CCN(c1ccc(C#N)cn1)[C@@H]1CCN(c2ncnc3[nH]ccc23)C1 [Compound 126, (R)-6-((1-(7H-pyrrolo[2,3-d]pyrimidin-4-yl)pyrrolidin-3-yl)(ethyl)amino)-nicotinonitrile]
50 to 100	CN(c1ncc(C#N)cc1Cl)[C@@H]1CCN(c2ncnc3[nH]ccc23)C1 [Compound 83]
50 to 100	CN(c1ccc(Cl)nn1)[C@@H]1CCN(c2ncnc3[nH]ccc23)C1 [Compound 85]
50 to 100	CN(c1ccc(C(=O)NC2c3ccccc3C[C@H]2O)cc1F)[C@@H]1CCN(c2ncnc3[nH]ccc23)C1 (single isomer, unassigned) [Compound 204]
20 to 50	CN(c1ccc(S(=O)(=O)Nc2ccn(C)n2)cn1)[C@@H]1CCN(c2ncnc3[nH]ccc23)C1 [Compound 250]
20 to 50	CN(C(=O)N1CCC[C@@H]1C(N)=O)[C@@H]1CCN(c2ncnc3[nH]ccc23)C1 [Compound 35]
50 to 100	CNS(=O)(=O)c1ccc(N(C)[C@@H]2CCN(c3ncnc4[nH]ccc34)C2)nc1 [Compound 239]
20 to 50	COc1cccc(NC(=O)c2ccc(N(C)[C@@H]3CCN(c4ncnc5[nH]ccc45)C3)nc2)c1 [Compound 196]
50 to 100	CN(c1ccc(C(=O)NCCO)cn1)[C@@H]1CCN(c2ncnc3[nH]ccc23)C1 [Compound 190]
50 to 100	CN(c1ccc(C#N)c(Cl)n1)[C@@H]1CCN(c2ncnc3[nH]ccc23)C1 [Compound 90]
50 to 100	CN(c1ccnc(Cl)n1)[C@@H]1CCN(c2ncnc3[nH]ccc23)C1 [Compound 63, (R)—N-(1-(7H-pyrrolo[2,3-d]pyrimidin-4-yl)pyrrolidin-3-yl)-2-chloro-N-methylpyrimidin-4-amine]
50 to 100	Cc1cc(N(C)[C@@H]2CCN(c3ncnc4[nH]ccc34)C2)ncc1[N+](=O)[O-] [Compound 77]
50 to 100	CN(C(=O)Nc1ccc(C#N)c(F)c1)[C@@H]1CCN(c2ncnc3[nH]ccc23)C1 [Compound 31]
20 to 50	CN(C)C(=O)c1ccc(N(C)[C@@H]2CCN(c3ncnc4[nH]ccc34)C2)nc1 [Compound 173]
50 to 100	Cc1cc(N(C)[C@@H]2CCN(c3ncnc4[nH]ccc34)C2)ncc1C#N [Compound 157]
20 to 50	CN(c1cc(F)cc(F)c1C#N)[C@@H]1CCN(c2ncnc3[nH]ccc23)C1 [Compound 118]
50 to 100	CN(c1ccc(NC(=O)c2ccccc2Cl)cn1)[C@@H]1CCN(c2ncnc3[nH]ccc23)C1 [Compound 227]
50 to 100	CN(c1nc(Cl)nc2ccccc12)[C@@H]1CCN(c2ncnc3[nH]ccc23)C1 [Compound 79]
50 to 100	CN(c1ccc(C#N)nn1)[C@@H]1CCN(c2ncnc3[nH]ccc23)C1 [Compound 60]
50 to 100	N#Cc1ccc(N(C2CC2)[C@@H]2CCN(c3ncnc4[nH]ccc34)C2)nc1 [Compound 41]
50 to 100	CN(C(=O)Nc1ccc(Cl)cc1)[C@@H]1CCN(c2ncnc3[nH]ccc23)C1 [Compound 33]
50 to 100	C[C@@H](NS(=O)(=O)c1ccc(N(C)[C@@H]2CCN(c3ncnc4[nH]ccc34)C2)nc1)c1ccc(F)cc1 [Compound 255]
20 to 50	COc1nccc(N(C)[C@@H]2CCN(c3ncnc4[nH]ccc34)C2)n1 [Compound 141]
50 to 100	CN([C@@H]1CCN(c2ncnc3[nH]ccc23)C1)S(=O)(=O)c1cccc([N+](=O)[O-])c1 [Compound 12]

Same assay, conditions: read-out: inhibition percentage (IR %)

SMILES	inhibition at 0.3 µM [%]
CN(c1ccc(-c2ccncc2)cn1)[C@@H]1CCN(c2ncnc3[nH]ccc23)C1 [Compound 144]	50 to 100
CCS(=O)(=O)Nc1ccc(N(C)[C@@H]2CCN(c3ncnc4[nH]ccc34)C2)nc1 [Compound 210, (R)—N-6-((1(7H-pyrrolo[2,3-d]pyrimidin-4-yl)pyrrolidin-3-yl)(methyl)(amino)pyridin-3-yl)ethanesulfonamfide]	50 to 100
